Laboratory results taken from article PMC9118553, “In Vivo Bioconcentration of 10 Anionic Surfactants in Rainbow Trout Explained by In Vitro Data on Partitioning and S9 Clearance” (Environmental Science & Technology, 2022).
Like-named read-outs stand apart in the source and are kept apart here. Marks after values point to notes of the source that are not given here.

Tests used:
[1] = RT-S9 substrate depletion assay, mixture of 9 anionic surfactants (AnionMixture); settings: for Slope of depletion curve (log concentration vs time): tested in a mixture
Protocol: An established RT-S9 substrate depletion assay was employed,[25]−[27] predating the currently available OECD guideline 319B.[28] A single batch of the characterized liver homogenate material was prepared at the US EPA lab in Duluth and shipped on dry ice to the testing facilities at the University of Amsterdam. The test was conducted using the same method applied for a series of cationic surfactants in Droge et al.[29] and is summarized together with the in vitro–in vivo extrapolation in Text S4.
Text S4: Trout liver S9 parent depletion assay details and IVIVE
Liver tissue was separately pooled from the same five rainbow trout (three males/two females, ~300 g, liver weight ~3 g) used also for the RT-S9 study on a series of cationic surfactants (Droge et al., 2021b). The liver sample was homogenized in an appropriate buffer and then centrifuged to yield a 13,000 x g supernatant (the ‘S9 fraction’, lacking only mitochondrial fractions). No further refinement towards microsomal fractions was made to remove cytosolic and lysosomal components.
Upon arrival at the University of Amsterdam the liver
S9 material was stored in a -80 °C freezer until use.
Individual chemicals were first dissolved in methanol and then further diluted to 20% methanol in 100 mM phosphate buffer to make a ~20 µM stock solution, which was then spiked as 10 µL in 190 µL of active S9 mixture. The active S9 mixture consisted of 100 mM potassium phosphate-buffered saline (PPBS) adjusted to pH 7.8, 2 mM β-NADPH, 2 mM UDPGA, 0.1 mM PAPS, 5 mM GSH, 10 μg/mL alamethicin (in methanol carrier; 0.1% v/v final concentration), and 2 mg/mL S9 protein. The substrate depletion assays were performed using the multiple vial method described in OECD TG 319B, employing two or three separately spiked series.
Reactions were performed at 11 °C in a temperature-controlled water bath (B. Braun Frigomix-R) that was placed on a 2 cm travel path shaker (Gerhardt LS 10) set at 45 rpm. As a positive […]
alkylsulfonates, no additional assays with inactivated RT-S9 were performed.
Reactions were quenched with 600 µL ice-cold acetonitrile. After 10 s vortexing and 5 min centrifugation (Hermle Z300, 2500 rpm), 100 µL clear supernatant was transferred into 300 µL glass inserts placed in new autosampler vials, and mixed with 100 µL pure water. Concentrations were measured using a Prominence UFLC-XR system (Shimadzu) coupled to a tandem mass spectrometer (QTRAP 4000, Applied Biosystems) with a Turbo Ion spray source operated at 400 ◦C. For chromatographic separations, a 100 x 2.1mm x 2.7 µm Supelco Ascentis Express column was used (40 °C), with eluent A: pure water with 2 mM ammonium acetate, and eluent […]
prepared in 50% acetonitrile/water, calibration curves used covered at least four points in a log-linear range. The lowest external standard to fit the log-linear calibration curve served as limit of quantification, requiring a peak of at least 10x the average noise.
Each vial was treated as an independent vial with recorded exposure time. Log-transformed concentration data of the parent compound were plotted against exposure time (min) and analysed using Graphpad PRISM 8. […]
the slope (min-1) was multiplied by -2.3 and by 60 (min h-1) to obtain a first order depletion rate […]
Extrapolation of kdep to whole body rate biotransformation rate constant (kB-S9) The basic approach to extrapolate first order depletion rate constants (k dep) to whole body

[2] = Baseline screening BCF (0.0125 DMLW, equilibrium partitioning, no biotransformation); settings: for Log baseline BCF: determined as 0.0125 DMLW
Text: Recently, the concept of a baseline screening BCF was introduced for surfactants, based on equilibrium partitioning assuming no biotransformation.[19] The baseline screening BCF for the study chemicals exceeded the measured BCF by 1–2.5 orders of magnitude (Table S16), providing further evidence that biotransformation is an important factor influencing the elimination—and thereby the BCF—of the anionic surfactants studied here in rainbow trout. The deviation of PFOA and PFOS from the regression between BCF and DMLW (Figure 1, upper panel) is attributable to them not being biotransformed.
Table S16: Comparison of the BCF (determined with the measured concentrations in water) and the baseline screening BCF (determined as 0.0125 DMLWa)
CHEMICAL Log BCF Log baseline BCF Log difference […]
a Droge, S. T. J.; Scherpenisse, P.; Arnot, J. A.; Armitage, J. M.; McLachlan, M. S.; Nichols, J.; von der Ohe, P.; Bonnell, M.; Hodges, G. Screening the baseline fish bioconcentration potential of various types of surfactants using phospholipid binding data. Environ. Sci.: Processes Impacts

[3] = cited from earlier work; for log DMW, membrane-water distribution ratio: marked * = measured, used for IVIVE, same values as Table 3

Row | SMILES | clearance rate lower in AnionMixture compared to single compound assay (factor) [1] | Slope of depletion curve (log concentration vs time) [1] [min-1] | Log difference (baseline BCF vs BCF) [2] [L kg-1 ww] | Log baseline BCF [2] [L kg-1 ww] | log DMW, membrane-water distribution ratio [3] | log DMLW ([3]; measurement from Droge) | log DMLW ([3]; measurement from Droge et al.)
1 | CCCCCCCCCCc1ccc(S(=O)(=O)O)cc1 [C10-1-LAS, 1-n-(p-sulfophenyl)decane] | twofold | -0.0050 | 1.99 | 3.20 | – | – | –
2 | CCCCCCCCCCS(=O)(=O)O [C10SO3, decylsulfonate] | 6 | -0.0111 | 2.48 | 1.11 | 3.01 | 3.01 ^e L kg^–1 | –
3 | CCCCCCCCCCCS(=O)(=O)O [C11SO3, undecylsulfonate] | – | – | 2.35 | 1.49 | 3.39 | – | –
4 | CCCCCCCCCCCOS(=O)(=O)O [C11SO4, undecylsulfate] | twofold | -0.0202 | 2.37 | 2.26 | 4.16 | – | –
5 | CCCCCCCCCCCCOCCOCCOCCOCCOS(=O)(=O)O [C12-EO4-SO4, dodecyltetraethoxysulfate] | – | -0.0216 | 2.38 | 2.34 | 4.24 | – | 4.24 ^f L kg^–1
6 | CCCCCCCCCCCCCS(=O)(=O)O [C13SO3, tridecylsulfonate] | – | – | 1.90 | 2.56 | 4.46 | 4.46 ^e L kg^–1 | –
7 | CCCCCCCCCCCCCOS(=O)(=O)O [C13SO4, tridecylsulfate] | – | -0.0042 | 1.78 | 3.31 | 5.21 | 5.21 ^e L kg^–1 | –
8 | CCCCCCCCCCCCCCS(=O)(=O)O [C14SO3, tetradecylsulfonate] | – | -0.0010 | 1.58 | 3.05 | 4.95 | 4.95 ^e L kg^–1 | –
9 | CCCCCCCCCCCCCCCCS(=O)(=O)O [C16SO3, hexadecylsulfonate] | – | -0.0008 | 1.15 | 4.29 | 6.19 | – | –
10 | CCCCC(CC)COC(=O)CC(C(=O)OCC(CC)CCCC)S(=O)(=O)O (stereo not shown) [DOSS, bis(2-ethylhexyl)sulfosuccinate] | – | -0.0021 | 2.53 | 2.68 | 4.58 | – | 4.58 ^f L kg^–1
